Measured values from PMC12368656 (2025).

Tests used:
[1] = system: 3′-methylene blue- and 5′-thiol-modified oligonucleotide with affinity toward vancomycin (aptamer probe) (DNA, aptamer) CGAGGGTACCGCAATAGTACTTATTGTTCGCCTATTGTGGGTCGG; assay: electrochemical aptamer-based sensor, SWV titration, planar gold electrode; details: Na+ (0.5 wt % NaCl); artificial sweat (0.1 wt % urea, 0.1 wt % lactic acid), pH 6.5, room temperature; apparent
[2] = system: 3′-methylene blue- and 5′-thiol-modified oligonucleotide with affinity toward vancomycin (aptamer probe) (DNA, aptamer) CGAGGGTACCGCAATAGTACTTATTGTTCGCCTATTGTGGGTCGG; assay: electrochemical aptamer-based sensor, SWV titration, gold-coated microstructured electrode (MSE); details: Na+ (0.5 wt % NaCl); artificial sweat (0.1 wt % urea, 0.1 wt % lactic acid), pH 6.5, room temperature; apparent

KD [1]: 26.3 ± 3.3 µM | KD [2]: 46.6 ± 4.1 µM
Structure (SMILES): CN[C@H](CC(C)C)C(=O)N[C@H]1C(=O)N[C@@H](CC(N)=O)C(=O)N[C@H]2C(=O)N[C@H]3C(=O)N[C@H](C(=O)N[C@H](C(=O)O)c4cc(O)cc(O)c4-c4cc3ccc4O)[C@H](O)c3ccc(c(Cl)c3)Oc3cc2cc(c3O[C@@H]2O[C@H](CO)[C@@H](O)[C@H](O)[C@H]2O[C@H]2C[C@](C)(N)[C@H](O)[C@H](C)O2)Oc2ccc(cc2Cl)[C@H]1O
